# Results published in PMC3698108, “Structural and bioactive studies of terpenes and cyclopeptides from the Genus Rubia” (Chemistry Central Journal, 2013).
# “Also recorded” adds a separate entry of the source.
# Columns and labels:
# renal aldose reductase = details: cited from earlier work
# [1] = tested on: Vancomycin-Resistant Enterococci; details: cited from earlier work; for antimicrobial activities: weaker than clinical antimicrobial drugs
# TRAIL-induced apoptosis = details: cited from earlier work
# STAT3 = details: cited from earlier work
# glyoxalase I = details: cited from earlier work
# four cell lines = details: cited from earlier work
# [2] = tested on: human immunodeficiency virus (HIV-1) protease; design: method as in PMID 8759159; details: cited from earlier work
# DNA topoisomerase II = tested on: DNA topoisomerase II; design: method as in PMID 18239313; details: cited from earlier work
# HT-29, MCF-7 and HepG2 = tested on: HT-29, MCF-7 and HepG2; design: method as in PMID 18239313; details: cited from earlier work
# [3] = design: method as in PMID 20188082; details: mice; cited from earlier work
# [4] = tested on: A549, SK-OV-3, SK-MEL-2, MES-SA and HCT-15; design: method as in PMID 15089031; details: cited from earlier work
# [5] = tested on: NO production from LPS-activated macrophages; design: method as in PMID 12762798; details: cited from earlier work
# platelet aggregation = tested on: platelet aggregation; design: method as in PMID 12350148; details: cited from earlier work
# HT-29 = details: cited from earlier work
# A549, Hela and SMMC-7721 = tested on: A549, Hela and SMMC-7721; design: method as in PMID 21973054; details: data not very satisfactory; cited from earlier work
# P-388 = details: cited from earlier work; for cytotoxicity against P-388 IC50: moderate cytotoxicity
# [6] = tested on: RAW 264.7 murine macrophages; details: cited from earlier work
# P388 = details: cited from earlier work
# HL-60 cells = tested on: HL-60 cells; design: method as in doi:10.1016/j.phytol.2012.02.014; details: much weaker than RA-XXIV and RA-VII; cited from earlier work
# iNOS = tested on: iNOS; design: method as in PMID 12808242; details: cited from earlier work
# 11 cancer cell lines = details: SRB assay; cited from earlier work
compound,measurement,setting,value
COC(=O)CC[C@@H]1NC(=O)[C@@H](C)NC(=O)[C@@H]2Cc3ccc(O)c(c3)Oc3ccc(cc3)C[C@@H](C(=O)N2C)N(C)C(=O)[C@H](C)NC(=O)[C@H](Cc2ccc(OC)cc2)N(C)C1=O,melting point,,253 to 254 °C
"C[C@H]1[C@H](C)CC[C@]2(C(=O)O)CC[C@]3(C)C(=CC[C@@H]4[C@@]5(C)CC[C@H](O)C(C)(C)[C@@H]5CC[C@]43C)[C@H]12 [Compound 11, Ursolic acid]",renal aldose reductase activity,renal aldose reductase,markedly suppressed
same,toxicity,[1],low toxicity
same,antimicrobial activities,[1],fairly high antimicrobial activities
same,TRAIL-induced apoptosis,TRAIL-induced apoptosis,potentiated TRAIL-induced apoptosis
same,STAT3 activation,STAT3,novel blocker of STAT3 activation
same,activity of glyoxalase I,glyoxalase I,enhanced the activity
same,apoptotic effects,four cell lines,markedly apoptotic effects
same,cell adhesion,four cell lines,suppress cell adhesion
same,production of VEGF and ICAM-1,four cell lines,reduce the production of VEGF and ICAM-1
same,inhibition on HIV-1 protease,[2],possess inhibition
"CC1(C)CC[C@]2(C(=O)O)CC[C@]3(C)C(=CC[C@@H]4[C@@]5(C)CC[C@H](O)C(C)(C)[C@@H]5CC[C@]43C)[C@@H]2C1 [Compound 12, Oleanolic acid]",renal aldose reductase activity,renal aldose reductase,markedly suppressed
same,toxicity,[1],low toxicity
same,antimicrobial activities,[1],fairly high antimicrobial activities
same,inhibitory activity against DNA topoisomerase II compared with DNA topoisomerase I,DNA topoisomerase II,selective inhibitory activity
same,"cytotoxicity against HT-29, MCF-7 and HepG2","HT-29, MCF-7 and HepG2",weak cytotoxicity
same,activity of glyoxalase I,glyoxalase I,enhanced the activity
same,apoptotic effects,four cell lines,markedly apoptotic effects
same,cell adhesion,four cell lines,suppress cell adhesion
same,production of VEGF and ICAM-1,four cell lines,reduce the production of VEGF and ICAM-1
same,glucose tolerance,[3],improve glucose tolerance
same,visceral adiposity,[3],ameliorate visceral adiposity
"CC(=O)OC1CCC2(C)C(CCC3(C)C2CC=C2C4CC(C)(C)CCC4(C=O)CCC23C)C1(C)C (stereo not drawn) [Compound 15, Oleanolic aldehyde acetate]","bioactivities against A549, SK-OV-3, SK-MEL-2, MES-SA and HCT-15",[4],potent bioactivities
"CC(C)[C@@H]1C[C@@H](O)[C@H]2[C@@]1(CO)CC[C@@]1(C)[C@H]3C(=CC[C@]21C)[C@@]1(C)CC[C@H](O)C(C)(C)[C@@H]1C[C@@H]3O [Compound 16, Rubiarbonol A]",inhibition of NO production,[5],inhibit NO production; also recorded: inhibitory activities on NO production
same,effect on platelet aggregation at the high doses,platelet aggregation,promoted platelet aggregation
same,effect on platelet aggregation at the lower concentrations,platelet aggregation,possessed antiplatelet aggregation activity
same,cytotoxicity against HT-29,HT-29,relatively strong cytotoxicity
same,melting point,,260 to 263 °C
"CC(C)[C@@H]1C[C@@H](O)[C@H]2[C@@]1(C)CC[C@@]1(C)[C@H]3C(=CC[C@]21C)[C@@]1(C)CC[C@H](O)C(C)(C)[C@@H]1C[C@@H]3O [Compound 17, Rubiarbonol B]",inhibition against arachidonic acid-induced and collagen-induced platelet aggregation,"platelet aggregation; at 150 μM, among compounds 16, 17 and 25",most potent inhibition
"CC(C)[C@@H]1C[C@@H](O)[C@H]2[C@@]1(CO)CC[C@@]1(C)[C@H]3C(=CC[C@]21C)[C@@]1(C)C[C@@H](O)[C@H](O)C(C)(C)[C@@H]1C[C@@H]3O [Compound 21, Rubiarbonol F]",inhibition of NO production,[5],inhibit NO production; also recorded: inhibitory activities on NO production
"CC(=O)OC[C@@]12CC[C@@]3(C)[C@H]4C(=CC[C@]3(C)[C@H]1[C@H](O)C[C@H]2C(C)C)[C@@]1(C)CCC(=O)C(C)(C)[C@@H]1C[C@@H]4O [Compound 27, Rubiarbonone C]",inhibition of NO production,[5],inhibit NO production; also recorded: inhibitory activities on NO production
same,melting point,,98 to 100 °C
"CC(=O)OC[C@@]12CC[C@@]3(C)[C@H]4C(=CC[C@]3(C)[C@H]1[C@H](O)C[C@H]2C(C)C)[C@@]1(C)CC[C@H](O)C(C)(C)[C@@H]1C[C@@H]4O [Compound 42, Rubianol-c]",inhibition of NO production,[5],inhibit NO production; also recorded: inhibitory activities on NO production
"CC(=O)OC[C@@]12CC[C@@]3(C)[C@H]4C(=CC[C@]3(C)[C@H]1[C@H](O)C[C@H]2C(C)C)[C@@]1(C)C[C@@H](O)[C@H](O)C(C)(C)[C@@H]1C[C@@H]4O [Compound 43, Rubianol-d]",efficacy of NO production inhibition compared with L-NMMA,[5],equivalent to L-NMMA
same,inhibition of NO production,[5],exhibited the inhibition
"CC(C)[C@@H]1C[C@@H](O)[C@H]2[C@@]1(C)CC[C@@]1(C)C3=CC[C@H]4C(C)(C)[C@@H](O)CC[C@]4(C)C3=CC[C@]21C [Compound 54, Rubiyunnanol A]","inhibition on A549, Hela and SMMC-7721","A549, Hela and SMMC-7721",had inhibition
"CC(C)[C@@H]1CC=C2[C@@]1(C)CC[C@@]1(C)[C@H]3C(=CC[C@]21C)[C@@]1(C)CC[C@H](O)C(C)(C)[C@@H]1C[C@@H]3O [Compound 55, Rubiyunnanol B]","inhibition on A549, Hela and SMMC-7721","A549, Hela and SMMC-7721",had inhibition
same,melting point,,247 to 248 °C
"CC(=O)O[C@@H]1C[C@@H](C(C)C)[C@]2(CO)CC[C@@]3(C)[C@H]4C(=CC[C@]3(C)[C@@H]12)[C@@]1(C)C=CC(=O)C(C)(C)[C@@H]1C[C@@H]4O [Compound 58, Rubiarbonone E 19-acetate]","inhibition on A549, Hela and SMMC-7721","A549, Hela and SMMC-7721",had inhibition
"CC(=O)OC[C@@]12CC[C@@]3(C)[C@H]4C(=CC[C@]3(C)[C@H]1[C@H](O)C[C@H]2C(C)C)[C@@]1(C)CC[C@H](O[C@@H]2O[C@H](CO[C@@H]3O[C@H](CO)[C@@H](O)[C@H](O)[C@H]3O)[C@@H](O)[C@H](O)[C@H]2O)C(C)(C)[C@@H]1C[C@@H]4O [Compound 62, Rubiarboside G 28-acetate]","inhibition on A549, Hela and SMMC-7721","A549, Hela and SMMC-7721",had inhibition
"COc1ccc(C[C@H]2C(=O)N[C@@H](C)C(=O)N(C)[C@H]3Cc4ccc(cc4)Oc4cc(ccc4OC)C[C@@H](C(=O)N[C@H](C)C(=O)N[C@@H](CCC(N)=O)C(=O)N2C)N(C)C3=O)cc1 [Compound 90, RA- XXIII]",cytotoxicity against P-388 IC50,P-388; P-388,160 µg/mL
"COc1ccc(C[C@H]2C(=O)N[C@@H](C)C(=O)N(C)[C@H]3Cc4ccc(cc4)Oc4cc(ccc4O)C[C@@H](C(=O)N[C@H](C)C(=O)N[C@@H](CCC(N)=O)C(=O)N2C)N(C)C3=O)cc1 [Compound 91, RA- XXIV]",cytotoxicity against P-388 IC50,P-388; P-388,480 µg/mL
same,activity against NO production in LPS,[6],exhibited activity
"COc1ccc(C[C@H]2C(=O)N[C@@H](C)C(=O)N(C)[C@H]3Cc4ccc(cc4)Oc4cc(ccc4OC)C[C@@H](C(=O)N[C@H](C)C(=O)N[C@@H](C)C(=O)N2C)N(C)C3=O)cc1 [Compound 104, RA-700]",activities against P388,P388,medium activities
O-seco-RA-XXIV [Compound 109],cytotoxic effects on HL-60 cells,HL-60 cells,exhibited cytotoxic effects
RA- XVIII [Compound 85],cytotoxicity against P-388,P-388; P-388,0.012 µg/mL
RA- XXII [Compound 89],relative cytotoxicity against P388,P-388; RA-VII (74) as reference,less cytotoxic than 88
RA-I [Compound 66],activity against NO production in LPS,[6],exhibited activity
RA-IX [Compound 76],antitumour effect on P388,P388,almost no antitumour activities
RA-X [Compound 77],antitumour effect on P388,P388,strong antitumour effect
RA-XII [Compound 79],effects on iNOS induction,iNOS,potent effects
same,antitumor activity against P388,P388,potent antitumor activity
same,activity against NO production in LPS,[6],exhibited activity
RC-18 [Compound 105],activities against P388,P388,medium activities
RY-I [Compound 100],activity against NO production in LPS,[6],exhibited activity
Rubianol-e [Compound 44],efficacy of NO production inhibition compared with L-NMMA,[5],equivalent to L-NMMA
same,inhibition of NO production,[5],exhibited the inhibition
Rubiarbonone A [Compound 25],effect on platelet aggregation at the high doses,platelet aggregation,promoted platelet aggregation
same,effect on platelet aggregation at the lower concentrations,platelet aggregation,possessed antiplatelet aggregation activity
Rubiyunnanin B [Compound 93],cytotoxicities against the 11 cancer cell lines,11 cancer cell lines,moderate cytotoxicities
